Source: paper PMC12621043, “Un-LOK-ing a New Approach for Conformational Selective Targeting of STK10 (LOK)” (ACS Medicinal Chemistry Letters, 2025)

Key:
Assay in all cases: DSF Tm panel
Assay type in all cases: binding
Details in all cases: 10 μM compound
STK17BA = target: T1, STK17BA (Homo sapiens, UniProt O94768)
T1 construct: purchased in-house DSF kinase panel (SGC-style construct names; the trailing letter is the construct ID)
T1 sequence (O94768 25-329): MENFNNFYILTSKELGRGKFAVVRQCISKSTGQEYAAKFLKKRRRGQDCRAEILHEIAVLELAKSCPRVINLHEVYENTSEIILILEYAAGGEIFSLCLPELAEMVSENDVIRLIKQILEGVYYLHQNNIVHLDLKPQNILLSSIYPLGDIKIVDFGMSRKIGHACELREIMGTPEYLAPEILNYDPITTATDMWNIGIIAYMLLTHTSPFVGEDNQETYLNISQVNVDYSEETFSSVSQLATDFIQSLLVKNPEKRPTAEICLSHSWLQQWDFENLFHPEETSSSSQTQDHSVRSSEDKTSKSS

MST4A = target: T2, MST4A (Homo sapiens, UniProt Q9P289)
T2 construct: purchased in-house DSF kinase panel (SGC-style construct names; the trailing letter is the construct ID)

CDK2A = target: T3, CDK2A (Homo sapiens, UniProt P24941)
T3 construct: purchased in-house DSF kinase panel (SGC-style construct names; the trailing letter is the construct ID)

DYRK1AA = target: T4, DYRK1AA (Homo sapiens, UniProt Q13627)
T4 construct: purchased in-house DSF kinase panel (SGC-style construct names; the trailing letter is the construct ID)

STK39A = target: T5, STK39A (Homo sapiens, UniProt Q9UEW8)
T5 construct: purchased in-house DSF kinase panel (SGC-style construct names; the trailing letter is the construct ID)

BMP2KA = target: T6, BMP2KA (Homo sapiens, UniProt Q9NSY1)
T6 construct: purchased in-house DSF kinase panel (SGC-style construct names; the trailing letter is the construct ID)

STK4 (STK4A) = target: T7, STK4 (STK4A) (Homo sapiens, UniProt Q13043)
T7 construct: purchased in-house DSF kinase panel (SGC-style construct names; the trailing letter is the construct ID)
T7 sequence (Q13043 1-311): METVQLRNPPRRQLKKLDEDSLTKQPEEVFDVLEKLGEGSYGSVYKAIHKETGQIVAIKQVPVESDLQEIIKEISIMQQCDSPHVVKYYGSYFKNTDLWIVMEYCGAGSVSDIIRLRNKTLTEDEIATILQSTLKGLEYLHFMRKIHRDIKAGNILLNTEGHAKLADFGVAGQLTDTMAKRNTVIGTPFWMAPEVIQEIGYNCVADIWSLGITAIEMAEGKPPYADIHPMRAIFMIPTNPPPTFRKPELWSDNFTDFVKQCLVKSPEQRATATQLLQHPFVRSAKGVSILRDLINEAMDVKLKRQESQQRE

GSG2A = target: T8, GSG2A (Homo sapiens, UniProt Q8TF76)
T8 construct: purchased in-house DSF kinase panel (SGC-style construct names; the trailing letter is the construct ID)
T8 sequence (Q8TF76 465-798): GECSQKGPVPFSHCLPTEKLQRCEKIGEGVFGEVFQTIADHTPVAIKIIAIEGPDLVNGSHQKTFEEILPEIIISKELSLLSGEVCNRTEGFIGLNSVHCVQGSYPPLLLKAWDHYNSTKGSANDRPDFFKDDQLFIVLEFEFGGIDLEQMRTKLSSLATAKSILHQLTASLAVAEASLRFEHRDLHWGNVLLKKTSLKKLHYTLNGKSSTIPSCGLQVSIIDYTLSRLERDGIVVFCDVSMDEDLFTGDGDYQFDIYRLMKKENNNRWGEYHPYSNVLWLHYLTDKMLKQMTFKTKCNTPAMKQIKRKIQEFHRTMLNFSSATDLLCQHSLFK

DAPK1 (DAPK1A) = target: T9, DAPK1 (DAPK1A) (Homo sapiens, UniProt P53355)
T9 construct: purchased in-house DSF kinase panel (SGC-style construct names; the trailing letter is the construct ID)

UKL3A (ULK3A) = target: T10, UKL3A (ULK3A) (Homo sapiens, UniProt Q6PHR2)
T10 construct: purchased in-house DSF kinase panel (SGC-style construct names; the trailing letter is the construct ID)
T10 sequence (Q6PHR2 1-279): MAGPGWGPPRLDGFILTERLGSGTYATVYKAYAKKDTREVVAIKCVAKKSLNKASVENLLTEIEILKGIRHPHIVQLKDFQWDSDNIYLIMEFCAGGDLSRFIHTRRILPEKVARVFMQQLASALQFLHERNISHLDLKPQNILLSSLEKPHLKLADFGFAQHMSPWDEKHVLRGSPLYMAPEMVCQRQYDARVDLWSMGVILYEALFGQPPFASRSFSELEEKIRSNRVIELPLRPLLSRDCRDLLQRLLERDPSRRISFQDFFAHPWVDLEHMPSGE

BRAFA = target: T11, BRAFA (Homo sapiens, UniProt P15056)
T11 construct: purchased in-house DSF kinase panel (SGC-style construct names; the trailing letter is the construct ID)

MST3A = target: T12, MST3A (Homo sapiens, UniProt Q9Y6E0)
T12 construct: purchased in-house DSF kinase panel (SGC-style construct names; the trailing letter is the construct ID)

MAPK13A = target: T13, MAPK13A (Homo sapiens, UniProt O15264)
T13 construct: purchased in-house DSF kinase panel (SGC-style construct names; the trailing letter is the construct ID)
T13 sequence (O15264 1-365): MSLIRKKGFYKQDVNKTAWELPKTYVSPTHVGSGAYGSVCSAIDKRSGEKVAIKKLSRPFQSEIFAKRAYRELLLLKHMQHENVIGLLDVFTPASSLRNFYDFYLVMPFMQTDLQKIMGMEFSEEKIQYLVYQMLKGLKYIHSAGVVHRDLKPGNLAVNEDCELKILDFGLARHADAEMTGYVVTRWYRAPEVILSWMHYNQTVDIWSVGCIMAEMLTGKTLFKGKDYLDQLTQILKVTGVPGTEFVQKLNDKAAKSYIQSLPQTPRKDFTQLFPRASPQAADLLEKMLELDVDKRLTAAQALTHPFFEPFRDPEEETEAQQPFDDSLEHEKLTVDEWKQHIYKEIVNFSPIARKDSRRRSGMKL

SLK = SLK (Homo sapiens, UniProt Q9H2G2); parameters: purchased in-house DSF kinase panel (SGC-style construct names; the trailing letter is the construct ID)
DAPK3 (DAPK3A) = target: T14, DAPK3 (DAPK3A) (Homo sapiens, UniProt O43293)
T14 construct: purchased in-house DSF kinase panel (SGC-style construct names; the trailing letter is the construct ID)

FGFR2A = target: T15, FGFR2A (Homo sapiens, UniProt P21802)
T15 construct: purchased in-house DSF kinase panel (SGC-style construct names; the trailing letter is the construct ID)

MAPK15A (MAPK15HSD) = target: T16, MAPK15A (MAPK15HSD) (Homo sapiens, UniProt Q8TD08)
T16 sequence (Q8TD08 13-304 limits assumed): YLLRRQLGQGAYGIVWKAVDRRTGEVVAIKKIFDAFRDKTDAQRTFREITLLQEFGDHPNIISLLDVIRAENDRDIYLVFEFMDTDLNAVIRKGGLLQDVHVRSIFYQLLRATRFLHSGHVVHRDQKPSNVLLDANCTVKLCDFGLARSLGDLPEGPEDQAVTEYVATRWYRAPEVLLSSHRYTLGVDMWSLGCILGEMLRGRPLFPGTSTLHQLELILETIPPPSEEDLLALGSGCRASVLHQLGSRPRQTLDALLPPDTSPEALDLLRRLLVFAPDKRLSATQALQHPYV

T9 sequence (P53355 1-285): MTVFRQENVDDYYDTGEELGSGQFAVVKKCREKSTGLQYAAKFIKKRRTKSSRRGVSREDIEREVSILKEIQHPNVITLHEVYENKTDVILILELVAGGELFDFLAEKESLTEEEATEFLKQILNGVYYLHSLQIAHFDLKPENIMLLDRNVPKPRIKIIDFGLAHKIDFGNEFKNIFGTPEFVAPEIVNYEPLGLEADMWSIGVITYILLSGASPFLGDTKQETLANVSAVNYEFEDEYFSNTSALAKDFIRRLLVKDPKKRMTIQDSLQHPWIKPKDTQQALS
T14 sequence (O43293 whole entry): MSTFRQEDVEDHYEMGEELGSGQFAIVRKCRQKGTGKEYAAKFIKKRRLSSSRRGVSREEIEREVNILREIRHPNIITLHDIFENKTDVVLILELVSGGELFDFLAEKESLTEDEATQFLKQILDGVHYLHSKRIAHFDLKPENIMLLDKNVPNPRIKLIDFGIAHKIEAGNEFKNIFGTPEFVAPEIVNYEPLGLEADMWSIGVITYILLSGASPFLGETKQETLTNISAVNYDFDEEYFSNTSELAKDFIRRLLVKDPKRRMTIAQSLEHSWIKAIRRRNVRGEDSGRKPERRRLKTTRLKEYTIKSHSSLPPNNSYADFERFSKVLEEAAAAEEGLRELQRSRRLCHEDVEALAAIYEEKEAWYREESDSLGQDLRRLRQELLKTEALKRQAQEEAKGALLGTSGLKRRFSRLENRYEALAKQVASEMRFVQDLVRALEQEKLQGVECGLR
T6 sequence (Q9NSY1 38-345): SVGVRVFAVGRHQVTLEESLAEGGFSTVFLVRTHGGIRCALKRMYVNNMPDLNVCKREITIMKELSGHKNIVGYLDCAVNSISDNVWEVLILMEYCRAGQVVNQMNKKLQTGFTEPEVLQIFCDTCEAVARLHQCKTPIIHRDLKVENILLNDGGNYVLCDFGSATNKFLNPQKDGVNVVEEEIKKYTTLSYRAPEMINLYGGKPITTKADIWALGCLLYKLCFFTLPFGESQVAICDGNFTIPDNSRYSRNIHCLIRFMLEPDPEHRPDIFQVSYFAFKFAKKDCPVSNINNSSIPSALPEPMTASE
T11 sequence (P15056 448-723): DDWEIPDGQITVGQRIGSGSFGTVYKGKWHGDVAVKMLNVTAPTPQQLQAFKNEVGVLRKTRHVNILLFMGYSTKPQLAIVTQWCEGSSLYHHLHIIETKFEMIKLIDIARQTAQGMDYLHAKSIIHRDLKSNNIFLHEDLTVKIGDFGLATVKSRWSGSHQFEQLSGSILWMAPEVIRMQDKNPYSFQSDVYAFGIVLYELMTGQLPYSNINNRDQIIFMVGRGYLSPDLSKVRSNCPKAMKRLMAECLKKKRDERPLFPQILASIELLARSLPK
T15 sequence (P21802 458-770): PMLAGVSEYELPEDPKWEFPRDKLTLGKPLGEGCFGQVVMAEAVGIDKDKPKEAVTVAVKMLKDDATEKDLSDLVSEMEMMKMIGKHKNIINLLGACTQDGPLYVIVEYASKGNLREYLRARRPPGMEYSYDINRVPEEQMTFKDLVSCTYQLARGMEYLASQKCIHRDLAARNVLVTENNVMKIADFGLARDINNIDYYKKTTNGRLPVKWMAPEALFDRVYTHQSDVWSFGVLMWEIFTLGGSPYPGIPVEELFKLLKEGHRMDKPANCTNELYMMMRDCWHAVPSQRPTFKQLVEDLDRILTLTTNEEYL
T2 sequence (Q9P289 1-300): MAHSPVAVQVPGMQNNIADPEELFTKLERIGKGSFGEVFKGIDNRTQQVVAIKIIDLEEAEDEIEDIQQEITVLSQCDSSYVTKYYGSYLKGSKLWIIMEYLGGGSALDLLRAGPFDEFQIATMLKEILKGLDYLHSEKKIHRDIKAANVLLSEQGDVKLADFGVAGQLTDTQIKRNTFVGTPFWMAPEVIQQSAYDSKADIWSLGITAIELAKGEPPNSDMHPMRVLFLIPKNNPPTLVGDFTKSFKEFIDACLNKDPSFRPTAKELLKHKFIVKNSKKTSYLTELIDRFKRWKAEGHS
T12 sequence (Q9Y6E0 whole entry): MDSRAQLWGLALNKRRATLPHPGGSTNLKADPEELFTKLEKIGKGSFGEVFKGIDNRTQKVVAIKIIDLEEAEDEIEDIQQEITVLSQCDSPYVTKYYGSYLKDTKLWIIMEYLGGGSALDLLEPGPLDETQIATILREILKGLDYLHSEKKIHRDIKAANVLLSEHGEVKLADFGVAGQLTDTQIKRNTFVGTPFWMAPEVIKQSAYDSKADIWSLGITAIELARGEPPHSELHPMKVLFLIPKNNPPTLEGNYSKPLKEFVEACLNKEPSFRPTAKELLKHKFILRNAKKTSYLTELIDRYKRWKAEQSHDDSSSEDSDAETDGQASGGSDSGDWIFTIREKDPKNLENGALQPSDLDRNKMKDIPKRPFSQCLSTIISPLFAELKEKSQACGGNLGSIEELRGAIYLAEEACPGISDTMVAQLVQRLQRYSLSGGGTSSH

Compound | ΔTm at 10 µM (STK17BA) | ΔTm at 10 µM (MST4A) | ΔTm at 10 µM (CDK2A) | ΔTm at 10 µM (DYRK1AA) | ΔTm at 10 µM (STK39A) | ΔTm at 10 µM (BMP2KA) | ΔTm at 10 µM (STK4 (STK4A)) | ΔTm at 10 µM (GSG2A) | ΔTm at 10 µM (DAPK1 (DAPK1A)) | ΔTm at 10 µM (UKL3A (ULK3A)) | ΔTm at 10 µM (BRAFA) | ΔTm at 10 µM (MST3A) | ΔTm at 10 µM (MAPK13A) | ΔTm at 10 µM (SLK) | ΔTm at 10 µM (DAPK3 (DAPK3A)) | ΔTm at 10 µM (FGFR2A) | ΔTm at 10 µM (MAPK15A (MAPK15HSD))
O=C(NCc1ccccc1C(F)(F)F)Nc1ccc2cc1OCCOCCNc1ccn3ncc-2c3n1 [compound 27] | 5.1 °C | 1.9 °C | 1.9 °C | 1 °C | 1.5 °C | 7.2 °C | 3.8 °C | 0.7 °C | 0.1 °C | 4.5 °C | -0.4 °C | -3.4 °C | -0.5 °C | 4.2 °C | 1.2 °C | 2.7 °C | 2.4 °C
O=C(NCc1ccc(Cl)cc1Cl)Nc1ccc2cc1OCCOCCNc1ccn3ncc-2c3n1 [compound 20] | 2.8 °C | 0.5 °C | 2.5 °C | 0.6 °C | 1.9 °C | 6.7 °C | 3.6 °C | 0 °C | 0.2 °C | 2.3 °C | 0.4 °C | 0 °C | 0.4 °C | 5.8 °C | 0.5 °C | 0.9 °C | 1.3 °C
O=C(NCc1cccc(Cl)c1)Nc1ccc2cc1OCCOCCNc1ccn3ncc-2c3n1 [compound 18] | 2.4 °C | 0.8 °C | 4.3 °C | 1.1 °C | 4 °C | 8.7 °C | 4.5 °C | 0 °C | 0.3 °C | 4.6 °C | 0.6 °C | 0.7 °C | 0.7 °C | 4.7 °C | 1.3 °C | 3.3 °C | 2.3 °C
Cc1cc(Br)ccc1CNC(=O)Nc1ccc2cc1OCCOCCNc1ccn3ncc-2c3n1 [compound 24] | 3.6 °C | 1.2 °C | 1.6 °C | 0.4 °C | 1 °C | 6.7 °C | 2.8 °C | 0 °C | -0.3 °C | 3.7 °C | -0.3 °C | -4.3 °C | -0.4 °C | 2.9 °C | 0.4 °C | 2.2 °C | 0.7 °C
Cc1cc(Cl)ccc1CNC(=O)Nc1ccc2cc1OCCOCCNc1ccn3ncc-2c3n1 [compound 23] | 3.3 °C | 2.1 °C | 3.1 °C | 2.6 °C | 2.5 °C | 5.9 °C | 7.4 °C | -0.1 °C | 0.1 °C | 3.7 °C | 0.5 °C | 0.3 °C | 0.3 °C | 3.5 °C | -0.3 °C | 1.9 °C | 0.8 °C

The next lines start with results.

ΔTm at 10 µM (STK17BA) | ΔTm at 10 µM (MST4A) | ΔTm at 10 µM (CDK2A) | ΔTm at 10 µM (DYRK1AA) | ΔTm at 10 µM (STK39A) | ΔTm at 10 µM (BMP2KA) | ΔTm at 10 µM (STK4 (STK4A)) | ΔTm at 10 µM (GSG2A) | ΔTm at 10 µM (DAPK1 (DAPK1A)) | ΔTm at 10 µM (UKL3A (ULK3A)) | ΔTm at 10 µM (BRAFA) | ΔTm at 10 µM (MST3A) | ΔTm at 10 µM (MAPK13A) | ΔTm at 10 µM (SLK) | ΔTm at 10 µM (DAPK3 (DAPK3A)) | ΔTm at 10 µM (FGFR2A) | Compound | ΔTm at 10 µM (MAPK15A (MAPK15HSD))
3.4 °C | -0.4 °C | 1.4 °C | -1.5 °C | 1.6 °C | 11.8 °C | 0.9 °C | 1.3 °C | 0.7 °C | 2.7 °C | 1.2 °C | 0.4 °C | 0.4 °C | 3.3 °C | 2.8 °C | 1.5 °C | CN1CCN(C(=O)Nc2ccc3cc2OCCOCCNc2ccn4ncc-3c4n2)CC1 [compound 35] | 2 °C
4.8 °C | 2.1 °C | 3.3 °C | 1.6 °C | 1.3 °C | 7.7 °C | 4.3 °C | 0.9 °C | 0.4 °C | 4.3 °C | 0 °C | -4.5 °C | -0.5 °C | 3.1 °C | 1.2 °C | 2.3 °C | O=C(NCc1ccc(C(F)(F)F)cc1)Nc1ccc2cc1OCCOCCNc1ccn3ncc-2c3n1 [compound 28] | 0.5 °C
1.8 °C | 0.3 °C | 2.5 °C | -0.4 °C | 1.2 °C | 9.8 °C | 3 °C | 0.7 °C | 0.1 °C | 4.4 °C | -0.2 °C | -5.1 °C | -0.1 °C | 2.1 °C | 1.2 °C | 3.1 °C | COc1cccc(CNC(=O)Nc2ccc3cc2OCCOCCNc2ccn4ncc-3c4n2)c1 [compound 30] | 2.3 °C
